{"source": "ChEMBL document CHEMBL6103569", "about": "“Discovery of novel fluorine-containing parthenolide analogues as potential antitumor agents” (Eur J Med Chem, 2025)", "key": {"[1]": {"test": "Antiproliferative activity against human NCI-H820 cells assessed as inhibition of cell growth incubated for 72 hrs by MTT assay", "assay_type": "functional, cell-based", "conditions": "nci-h820"}, "Huh-7": {"tested_on": "Huh-7", "test": "Antiproliferative activity against human Huh-7 cells assessed as inhibition of cell growth incubated for 72 hrs by MTT assay", "assay_type": "functional, cell-based", "conditions": "huh-7"}, "PANC-1": {"tested_on": "PANC-1", "test": "Antiproliferative activity against human PANC-1 cells assessed as inhibition of cell growth incubated for 72 hrs by MTT assay", "assay_type": "functional, cell-based", "conditions": "panc-1"}, "[2]": {"test": "Prodrug conversion of the compound in HEPES buffer assessed as (1aR,7aS,10aS,10bS)-1a-methyl-8-methylene-5-(2,2,2-trifluoroethyl)-2,3,6,7,7a,8,10a,10b-octahydrooxireno[2',3':9,10]cyclodeca[1,2-b]furan-9(1aH)-one formation by measuring half life at pH 7.4 by RP-HPLC analysis", "assay_type": "ADME"}, "[3]": {"test": "Half life in male BALB/c mouse at 10 mg/kg, iv measured upto 24 hrs by LC-MS/MS analysis", "assay_type": "ADME, organism-based", "conditions": "in vivo"}, "[4]": {"test": "Half life in male BALB/c mouse at 50 mg/kg, po measured upto 24 hrs by LC-MS/MS analysis", "assay_type": "ADME, organism-based", "conditions": "in vivo"}, "[5]": {"test": "Tmax in male BALB/c mouse at 50 mg/kg, po measured upto 24 hrs by LC-MS/MS analysis", "assay_type": "ADME, organism-based", "conditions": "in vivo"}, "[6]": {"test": "Cmax in male BALB/c mouse at 50 mg/kg, po measured upto 24 hrs by LC-MS/MS analysis", "assay_type": "ADME, organism-based", "conditions": "in vivo"}, "[7]": {"test": "Initial plasma concentration in male BALB/c mouse at 10 mg/kg, iv measured upto 24 hrs by LC-MS/MS analysis", "assay_type": "ADME, organism-based"}, "[8]": {"test": "AUC (0 to t) in male BALB/c mouse at 10 mg/kg, iv measured upto 24 hrs by LC-MS/MS analysis", "assay_type": "ADME, organism-based", "conditions": "in vivo"}, "[9]": {"test": "AUC (0 to t) in male BALB/c mouse at 50 mg/kg, po measured upto 24 hrs by LC-MS/MS analysis", "assay_type": "ADME, organism-based", "conditions": "in vivo"}, "[10]": {"test": "AUC (0 to infinity) in male BALB/c mouse at 10 mg/kg, iv measured upto 24 hrs by LC-MS/MS analysis", "assay_type": "ADME, organism-based", "conditions": "in vivo"}, "[11]": {"test": "AUC (0 to infinity) in male BALB/c mouse at 50 mg/kg, po measured upto 24 hrs by LC-MS/MS analysis", "assay_type": "ADME, organism-based", "conditions": "in vivo"}, "[12]": {"test": "Volume of distribution in male BALB/c mouse at 10 mg/kg, iv measured upto 24 hrs by LC-MS/MS analysis", "assay_type": "ADME, organism-based", "conditions": "in vivo"}, "[13]": {"test": "Clearance in male BALB/c mouse at 10 mg/kg, iv measured upto 24 hrs by LC-MS/MS analysis", "assay_type": "ADME, organism-based", "conditions": "in vivo"}, "[14]": {"test": "MRT (0 to t) in male BALB/c mouse at 10 mg/kg, iv measured upto 24 hrs by LC-MS/MS analysis", "assay_type": "ADME, organism-based", "conditions": "in vivo"}, "[15]": {"test": "MRT (0 to t) in male BALB/c mouse at 50 mg/kg, po measured upto 24 hrs by LC-MS/MS analysis", "assay_type": "ADME, organism-based", "conditions": "in vivo"}, "[16]": {"test": "Oral bioavailability in male BALB/c mouse at 50 mg/kg measured upto 24 hrs by LC-MS/MS analysis", "assay_type": "ADME, organism-based", "conditions": "in vivo"}, "[17]": {"test": "Acute toxicity in BALB/c mouse assessed as change in body weight at 100 mg/kg, po", "assay_type": "organism-based", "conditions": "in vivo"}, "[18]": {"test": "Acute toxicity in BALB/c mouse assessed as liver damage at 100 mg/kg, po", "assay_type": "organism-based", "conditions": "in vivo"}, "[19]": {"test": "Acute toxicity in BALB/c mouse assessed as spleen damage at 100 mg/kg, po", "assay_type": "organism-based", "conditions": "in vivo"}, "[20]": {"test": "Acute toxicity in BALB/c mouse assessed as lung damage at 100 mg/kg, po", "assay_type": "organism-based", "conditions": "in vivo"}, "[21]": {"test": "Acute toxicity in BALB/c mouse assessed as kidney damage at 100 mg/kg, po", "assay_type": "organism-based", "conditions": "in vivo"}, "[22]": {"test": "Acute toxicity in BALB/c mouse assessed as brain damage at 100 mg/kg, po", "assay_type": "organism-based", "conditions": "in vivo"}, "[23]": {"test": "Acute toxicity in BALB/c mouse assessed as heart damage at 100 mg/kg, po", "assay_type": "organism-based", "conditions": "in vivo"}}}
{"smiles": "CN(C)CC1C(=O)O[C@H]2[C@H]1CC/C(CC(F)(F)F)=C\\CC[C@@]1(C)O[C@@H]21.O=C(O)/C=C/C(=O)O", "note": "(stereo not given in full)", "values": [{"measurement": "IC50", "setting": "[1]", "result": 4.18, "unit": "µM"}, {"measurement": "IC50", "setting": "Huh-7", "result": 3.41, "unit": "µM"}, {"measurement": "IC50", "setting": "PANC-1", "result": 4.16, "unit": "µM"}, {"measurement": "t1/2", "setting": "[2]", "result": 1.28, "unit": "h"}, {"measurement": "half-life", "setting": "[3]", "result": 33.2, "unit": "min"}, {"measurement": "half-life", "setting": "[4]", "result": 47.9, "unit": "min"}, {"measurement": "Tmax", "setting": "[5]", "result": 15, "unit": "min"}, {"measurement": "Cmax", "setting": "[6]", "result": 1080, "unit": "ng/mL"}, {"measurement": "C0 at 24 h", "setting": "[7]", "result": 1450, "unit": "ng/mL"}, {"measurement": "AUC(0-t) at 24 h", "setting": "[8]", "result": 438, "unit": "ng·h/mL"}, {"measurement": "AUC(0-t) at 24 h", "setting": "[9]", "result": 991, "unit": "ng·h/mL"}, {"measurement": "AUC(0-inf)", "setting": "[10]", "result": 444, "unit": "ng·h/mL"}, {"measurement": "AUC(0-inf)", "setting": "[11]", "result": 991, "unit": "ng·h/mL"}, {"measurement": "Vd", "setting": "[12]", "result": 12.1, "unit": "L/kg"}, {"measurement": "clearance", "setting": "[13]", "result": 253, "unit": "mL/min/kg"}, {"measurement": "MRT last at 24 h", "setting": "[14]", "result": 24.1, "unit": "min"}, {"measurement": "MRT last at 24 h", "setting": "[15]", "result": 49.7, "unit": "min"}, {"measurement": "bioavailability", "setting": "[16]", "result": 45.2, "unit": "%"}, {"measurement": "Activity", "setting": "[17]", "result": "Non-toxic"}, {"measurement": "Activity", "setting": "[18]", "result": "Non-toxic"}, {"measurement": "Activity", "setting": "[19]", "result": "Non-toxic"}, {"measurement": "Activity", "setting": "[20]", "result": "Non-toxic"}, {"measurement": "Activity", "setting": "[21]", "result": "Non-toxic"}, {"measurement": "Activity", "setting": "[22]", "result": "Non-toxic"}, {"measurement": "Activity", "setting": "[23]", "result": "Non-toxic"}]}
